We go through 1 compound from ChEMBL document CHEMBL2074028, “Direct interaction between a quinoline derivative, MS-209, and multidrug resistance protein (MRP) in human gastric cancer cells” (Biochem Biophys Res Commun, 1999).

In the data set the target is Multidrug resistance-associated protein 1 (Homo sapiens, UniProt P33527). Description: TP_TRANSPORTER: inhibition of LTC4 uptake (LTC4: 0.00134 uM, MS-209: 3 uM) in membrane vesicles from MKN45R0.8 cells. The format is functional, cell membranes, Membrane vesicle. Also on record: scale not given: the % may be the effect or the level left. As to conditions: mkn45r0.8, 3 µM.
Sequence of Multidrug resistance-associated protein 1 (P33527 whole entry): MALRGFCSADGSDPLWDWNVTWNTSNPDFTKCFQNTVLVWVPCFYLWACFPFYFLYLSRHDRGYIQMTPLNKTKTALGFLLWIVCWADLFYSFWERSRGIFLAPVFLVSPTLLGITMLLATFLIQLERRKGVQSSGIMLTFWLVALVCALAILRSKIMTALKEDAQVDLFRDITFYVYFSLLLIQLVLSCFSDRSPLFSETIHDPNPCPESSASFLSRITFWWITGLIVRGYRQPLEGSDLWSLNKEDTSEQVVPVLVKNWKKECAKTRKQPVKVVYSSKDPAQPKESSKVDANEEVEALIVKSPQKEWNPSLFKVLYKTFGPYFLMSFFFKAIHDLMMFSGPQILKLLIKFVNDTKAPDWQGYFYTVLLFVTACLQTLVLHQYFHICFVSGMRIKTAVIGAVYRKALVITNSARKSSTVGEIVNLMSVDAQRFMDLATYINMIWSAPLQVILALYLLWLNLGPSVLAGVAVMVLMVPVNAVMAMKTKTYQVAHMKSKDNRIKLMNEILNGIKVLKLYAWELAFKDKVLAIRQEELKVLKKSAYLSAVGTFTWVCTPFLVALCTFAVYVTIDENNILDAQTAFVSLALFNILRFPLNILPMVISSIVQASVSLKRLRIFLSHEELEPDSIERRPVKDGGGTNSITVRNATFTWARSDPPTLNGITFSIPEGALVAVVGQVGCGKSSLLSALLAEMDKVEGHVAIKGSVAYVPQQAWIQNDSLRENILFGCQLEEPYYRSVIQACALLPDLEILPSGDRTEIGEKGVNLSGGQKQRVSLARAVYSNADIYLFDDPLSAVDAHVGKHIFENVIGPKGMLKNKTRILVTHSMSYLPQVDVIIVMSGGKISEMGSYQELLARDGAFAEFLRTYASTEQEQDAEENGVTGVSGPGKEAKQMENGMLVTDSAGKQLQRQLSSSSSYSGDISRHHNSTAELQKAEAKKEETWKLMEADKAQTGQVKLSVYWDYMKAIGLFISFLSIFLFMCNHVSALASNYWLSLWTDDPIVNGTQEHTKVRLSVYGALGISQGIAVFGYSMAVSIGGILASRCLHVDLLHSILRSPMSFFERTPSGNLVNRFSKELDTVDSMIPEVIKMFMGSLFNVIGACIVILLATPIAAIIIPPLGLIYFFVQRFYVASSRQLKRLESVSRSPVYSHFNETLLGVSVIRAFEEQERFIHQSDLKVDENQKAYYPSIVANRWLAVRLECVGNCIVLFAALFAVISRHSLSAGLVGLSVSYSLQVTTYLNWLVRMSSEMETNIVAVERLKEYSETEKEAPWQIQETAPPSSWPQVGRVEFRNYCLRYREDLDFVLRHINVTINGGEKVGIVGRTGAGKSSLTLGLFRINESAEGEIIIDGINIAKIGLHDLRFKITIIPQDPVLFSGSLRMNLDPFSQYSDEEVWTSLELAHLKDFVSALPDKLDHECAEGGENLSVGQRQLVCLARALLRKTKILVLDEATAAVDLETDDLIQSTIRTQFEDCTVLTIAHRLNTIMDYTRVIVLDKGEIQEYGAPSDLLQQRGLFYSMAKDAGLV

In the case of `O=C(C(c1ccccc1)c1ccccc1)N1CCN(C[C@@H](O)COc2cccc3ncccc23)CC1`, the Activity is recorded as 20%.
